Here are results for 22 compounds from patent publication US20220227735A1, “THERAPEUTIC METHODS AND COMPOUNDS” (RUTGERS, THE STATE UNIVERSITY OF NEW JERSEY, priority 2019, published 2022).

Like-named read-outs stand apart in the source and are kept apart here.

In assay [1] the target is T1, Plasmodium falciparum PKG (PfPKG) (Plasmodium falciparum, UniProt Q8I719).
T1 construct: Full length PfPKG was cloned into the pTrcHisC vector for expression in BL21 (DE3) Star cells; His tag (pTrcHisC vector) (N); made in house; host or cells: E. coli BL21 (DE3) Star
T1 sequence (Q8I719 whole entry): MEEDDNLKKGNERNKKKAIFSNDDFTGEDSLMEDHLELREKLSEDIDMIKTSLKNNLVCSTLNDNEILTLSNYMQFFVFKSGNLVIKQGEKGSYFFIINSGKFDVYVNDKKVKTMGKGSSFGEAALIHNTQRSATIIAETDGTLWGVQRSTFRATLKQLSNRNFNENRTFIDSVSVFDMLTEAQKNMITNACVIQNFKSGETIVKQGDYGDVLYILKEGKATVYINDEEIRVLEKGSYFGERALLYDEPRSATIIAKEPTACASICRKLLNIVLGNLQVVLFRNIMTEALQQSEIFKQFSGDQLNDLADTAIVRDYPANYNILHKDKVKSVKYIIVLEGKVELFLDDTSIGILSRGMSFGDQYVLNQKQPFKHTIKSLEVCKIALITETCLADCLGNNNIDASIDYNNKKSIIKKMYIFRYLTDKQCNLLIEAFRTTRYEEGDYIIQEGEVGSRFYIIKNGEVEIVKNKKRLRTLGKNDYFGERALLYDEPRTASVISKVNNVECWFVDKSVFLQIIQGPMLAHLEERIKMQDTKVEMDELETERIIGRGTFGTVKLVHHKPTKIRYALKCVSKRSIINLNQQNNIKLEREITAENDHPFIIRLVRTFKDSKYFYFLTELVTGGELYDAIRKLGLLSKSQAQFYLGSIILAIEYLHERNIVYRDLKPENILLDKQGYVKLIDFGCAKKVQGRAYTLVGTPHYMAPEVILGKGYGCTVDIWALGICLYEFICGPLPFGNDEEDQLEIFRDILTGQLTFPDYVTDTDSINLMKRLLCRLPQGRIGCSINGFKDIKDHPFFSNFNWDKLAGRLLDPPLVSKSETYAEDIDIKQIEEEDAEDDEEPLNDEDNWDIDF
As to the kind of experiment: PfPKG IMAP fluorescence polarization kinase assay. The class given is biochemical. How it is done: Full length PfPKG was cloned into the pTrcHisC vector for expression in BL21 (DE3) Star cells. An LB culture containing 50 ug/ml carbenicillin (250 mL) was grown overnight at 37° C. The following day the culture was cooled on ice for about 10-15 minutes and divided equally into two new 125 mL cultures. 125 ml of fresh LB broth containing carbenicillin was added to each flask bringing the volume of each flask to 250 ml. Cultures were shaken at 18° C. before induction with IPTG (1.0 mM) for 18-24 h. The bacterial pellet was frozen at −80° C. until protein purification. Cells were lysed with Bacterial Protein Extraction Reagent (Thermo Scientific) on ice for 10-15 min. Supernatant was obtained after centrifugation of lysate at 21,000×g for 15 min at 4° C. Supernatant was incubated for 30 minutes at 4° C. with rotation with HisPur Cobalt Resin (Thermo Scientific), pre-washed with Wash Buffer (50 mM Hepes pH 7.8, 120 mM KCl, 20 mM NaCl, 10 mM Imidazole). Resin was added to a gravity column that was allowed to empty through gravity flow. The resin was washed with Wash buffer until no more protein is eluted off the column as determined by Bradford assay. A second wash was performed with Wash buffer containing 300 mM NaCl as in the previous wash step. Bound protein was eluted in 50 mM Hepes pH 7.8, 120 mM KCl, 20 mM NaCl, 250 mM Imidazole. Protein was dialyzed overnight in 50 mM Hepes pH 7.8, 120 mM KCl, 20 mM NaCl and 10% glycerol, with two buffer exchanges. Dialyzed protein was concentrated in a Corning Spin-X concentrator and assayed for activity using the IMAP FP Progressive Screening Expression kit (Molecular Devices, catalog #R8127) following the manufacturer's protocol.
(§1) Plasmodium falciparum PKG (PfPKG) and human PKG (hPKG) kinase activity was assayed using a commercial immobilized metal ion affinity-based fluorescence polarization (IMAP) assay according to the manufactures protocol (Molecular Devices). Briefly, kinase assays (20 μl in black half volume 96 well microtiter plates) contained; 10 mM Tris-HCl, pH 7.2, 10 mM MgCl2, 0.05% NaN3, 0.01% Tween® 20, 10 uM ATP, 1 uM cGMP and 21 ng of recombinant enzyme per well. Compounds were preincubated with enzyme at 25° C. for 15 minutes and reactions were initiated with addition of 120 nM fluorescent peptide substrates, FAM-PKAtide for PfPKG and FAM-IP3R for hPKG (Molecular Devices). Fluorescent polarization was measured using a Synergy 2 Microplate reader (BioTek, Winooski, Vt.). Fluorescent polarization was read in parallel and perpendicular with an excitation wavelength of 485 nm and an emission wavelength of 528 nm. IC50 data were analyzed using a four parameter logistic curve fit using Microsoft Excel Solver.

The test system of another assay is human PKG (hPKG). Description: Human PKG IMAP fluorescence polarization kinase assay. Type of assay: biochemical. The settings on record: compound at 10 μm; recombinant hPKG, 10 uM ATP, 1 uM cGMP, FAM-IP3R substrate.
Text: Human PKG, cloned into a pENTR221 vector, was obtained from DNASU.org. (HsCD00351766). It was cloned into a mammalian expression plasmid, Gateway pDEST27 (Invitrogen) for expression as a GST fusion protein, using LR Clonase II Plus enzyme (Invitrogen). The hPKG-pDEST27 plasmid was amplified in DH5a Max Efficiency Competent Cells and purified with a PureYield Plasmid Midiprep System (Promega) following the manufactures protocol. Expi293 cells were transfected with hPKG-pDEST27 using the Expifectamine 293 Transfection Kit (Gibco). After 18 hours, enhancing reagent (Gibco) was added. Cells were then collected 48 hours post-enhancing, centrifuged at 2000×g for 10 min, washed in ice cold PBS and frozen as a pellet at −80° C. until protein purification. The cell pellet was lysed with Mammalian Protein Extraction Reagent (Thermo Fisher) for 10-15 minutes. The lysate was centrifuged at 21,000×g for 15 minutes at 4° C. The supernatant was incubated for 1 h at 4° C. with glutathione resin that was pre-washed 10 times with ice cold Wash Buffer (50 mM Hepes pH 7.8, 120 mM KCl, 20 mM NaCl, 10% glycerol). The resin was loaded onto a column and washed with resin wash buffer by gravity flow until no more protein was detectable in the washes by Bradford assay. Protein was eluted with 10 mg/ml glutathione in Wash buffer. The protein was concentrated using a 30K MWCO Corning Spin X concentrator and assayed for activity as described above.
as §1

The mark [2] stands for this setting: recombinant PfPKG, 10 uM ATP, 1 uM cGMP, FAM-PKAtide substrate, read-out: PfPKG (μm).

For `C[C@H]1C[C@@H](c2cc(-c3ccncc3)c(-c3ccc(F)cc3)[nH]2)CCN1C` (single isomer, unassigned) [Example 29, 4-(5-(cis-1,2-dimethylpiperidin-4-yl)-2-(4-fluorophenyl)-1H-pyrrol-3-yl)pyridine], in assay [1] (setting [2]), the IC50 was under 1 µM. The “Human PKG (10 μm)” value in the assay with human PKG (hPKG) stood at 26.

For the compound `C[C@H]1C[C@H](c2cc(-c3ccncc3)c(-c3ccc(F)cc3)[nH]2)CCN1C` (single isomer, unassigned) [Example 30, 4-(5-(trans-1,2-dimethylpiperidin-4-yl)-2-(4-fluorophenyl)-1H-pyrrol-3-yl)pyridine], the IC50 in assay [1] (setting [2]) was under 1 µM.

As for `C[C@@H]1CN(C)CC[C@@H]1c1cc(-c2ccncc2)c(-c2ccc(F)cc2)[nH]1` (single isomer, unassigned) [Example 31, 4-(5-(cis-1,3-dimethylpiperidin-4-yl)-2-(4-fluorophenyl)-1H-pyrrol-3-yl)pyridine], the IC50 in assay [1] is under 1 µM. Besides, the “Human PKG (10 μm)” value with human PKG (hPKG) was found to be 82.

As for `C[C@@H]1CN(C)CC[C@H]1c1cc(-c2ccncc2)c(-c2ccc(F)cc2)[nH]1` (single isomer, unassigned) [Example 32, 4-(5-(trans-1,3-dimethylpiperidin-4-yl)-2-(4-fluorophenyl)-1H-pyrrol-3-yl)pyridine], in assay [1] (read-out: PfPKG (μm), recombinant PfPKG, 10 uM ATP, 1 uM cGMP, FAM-PKAtide substrate), the IC50 was under 1 µM. For the same compound, the “Human PKG (10 μm)” value in the assay on human PKG (hPKG) was found to be 66.

Take `CN1CCC(c2cc(-c3ccncc3Br)c(-c3ccc(F)cc3)[nH]2)CC1` [Example 1, 3-bromo-4-(2-(4-fluorophenyl)-5-(1-methylpiperidin-4-yl)-1H-pyrrol-3-yl)pyridine]: the IC50 in assay [1] (setting [2]) was under 1 µM. For the same compound, the “Human PKG (10 μm)” value with human PKG (hPKG) is 39.

As for `CN1CCC(c2cc(-c3ccnc(Br)c3)c(-c3ccc(F)cc3)[nH]2)CC1` [Example 2, 2-bromo-4-(2-(4-fluorophenyl)-5-(1-methylpiperidin-4-yl)-1H-pyrrol-3-yl)pyridine], the IC50 in assay [1] (setting [2]) was under 1 µM. Further, in the assay on human PKG (hPKG), the “Human PKG (10 μm)” value is 60.

Consider `Cc1cnccc1-c1cc(C2CCN(C)CC2)[nH]c1-c1ccc(F)cc1` [Example 3, 4-(2-(4-fluorophenyl)-5-(1-methylpiperidin-4-yl)-1H-pyrrol-3-yl)-3-methylpyridine], for which, in assay [1] (setting [2]), the IC50 is under 1 µM. Moreover, the “Human PKG (10 μm)” value in the assay with human PKG (hPKG) is given as 45.

`Cc1cc(-c2cc(C3CCN(C)CC3)[nH]c2-c2ccc(F)cc2)ccn1` [Example 4, 4-(2-(4-fluorophenyl)-5-(1-methylpiperidin-4-yl)-1H-pyrrol-3-yl)-2-methylpyridine]: the IC50 in assay [1] (setting [2]) is under 1 µM. Moreover, in the assay on human PKG (hPKG), the “Human PKG (10 μm)” value is 30.

`CN1CCC(c2cc(-c3ccnc(C(N)=O)c3)c(-c3ccc(F)cc3)[nH]2)CC1` [Example 5, 4-(2-(4-fluorophenyl)-5-(1-methylpiperidin-4-yl)-1H-pyrrol-3-yl)picolinamide]: the IC50 in assay [1] (setting [2]) is under 1 µM. The “Human PKG (10 μm)” value in the assay on human PKG (hPKG) worked out at 28.

Take `CN1CCC(c2cc(-c3ccncc3CO)c(-c3ccc(F)cc3)[nH]2)CC1` [Example 6, (4-(2-(4-fluorophenyl)-5-(1-methylpiperidin-4-yl)-1H-pyrrol-3-yl)pyridin-3-yl)methanol]: in assay [1] (setting [2]), the IC50 is under 1 µM. Besides, in the assay with human PKG (hPKG), the “Human PKG (10 μm)” value is −1.

On to `CN1CCC(c2cc(-c3ccnc(N)c3)c(-c3ccc(F)cc3)[nH]2)CC1` [Example 7, 4-(2-(4-fluorophenyl)-5-(1-methylpiperidin-4-yl)-1H-pyrrol-3-yl)pyridin-2-amine], for which, in assay [1] (setting [2]), the IC50 was under 1 µM. For the same compound, in the assay on human PKG (hPKG), the “Human PKG (10 μm)” value came out at 48.

In the case of `CN1CCC(c2cc(-c3ccncc3C#N)c(-c3ccc(F)cc3)[nH]2)CC1` [Example 8, 4-(2-(4-fluorophenyl)-5-(1-methylpiperidin-4-yl)-1H-pyrrol-3-yl)nicotinonitrile], the IC50 in assay [1] (setting [2]) is under 1 µM. For the same compound, the “Human PKG (10 μm)” value in the assay with human PKG (hPKG) is given as 12.

With `CN1CCC(c2cc(-c3ccnc(C#N)c3)c(-c3ccc(F)cc3)[nH]2)CC1` [Example 9, 4-(2-(4-fluorophenyl)-5-(1-methylpiperidin-4-yl)-1H-pyrrol-3-yl)picolinonitrile], the IC50 in assay [1] (setting [2]) was under 1 µM. Moreover, the “Human PKG (10 μm)” value with human PKG (hPKG) came to 16.

Consider `CC(O)c1cc(-c2cc(C3CCN(C)CC3)[nH]c2-c2ccc(F)cc2)ccn1` (stereo not shown) [Example 10, 1-(4-(2-(4-fluorophenyl)-5-(1-methylpiperidin-4-yl)-1H-pyrrol-3-yl)pyridin-2-yl)ethan-1-ol], for which, in assay [1] (setting [2]), the IC50 is under 1 µM. Besides, the “Human PKG (10 μm)” value in the assay with human PKG (hPKG) is −4.

On to `CN1CCc2c(ccc3c(-c4ccncc4)c(-c4ccc(F)cc4)[nH]c23)C1` [Example 11, 2-(4-fluorophenyl)-7-methyl-3-(pyridin-4-yl)-6,7,8,9-tetrahydro-1H-pyrrolo[2,3-f]isoquinoline], for which, in assay [1] (setting [2]), the IC50 is under 1 µM. Further, the “Human PKG (10 μm)” value in the assay with human PKG (hPKG) turned out to be 35.

Consider `CN1CCC(c2cc(-c3ccn4nnnc4c3)c(-c3ccc(F)cc3)[nH]2)CC1` [Example 12, 7-(2-(4-fluorophenyl)-5-(1-methylpiperidin-4-yl)-1H-pyrrol-3-yl)tetrazolo[1,5-a]pyridine], for which, in assay [1] (setting [2]), the IC50 was under 1 µM. Besides, in the assay on human PKG (hPKG), the “Human PKG (10 μm)” value was −35.

Consider `CN1CCC(c2cc(-c3ccncc3C(N)=O)c(-c3ccc(F)cc3)[nH]2)CC1` [Example 13, 4-(2-(4-fluorophenyl)-5-(1-methylpiperidin-4-yl)-1H-pyrrol-3-yl)nicotinamide], for which, in assay [1] (setting [2]), the IC50 is under 1 µM. Further, the “Human PKG (10 μm)” value in the assay with human PKG (hPKG) was −2.

As for `CN1CCC(c2cc(-c3ccncc3)c(-c3ccc(F)cc3)n2C)CC1` [Example 14, 4-(2-(4-fluorophenyl)-1-methyl-5-(1-methylpiperidin-4-yl)-1H-pyrrol-3-yl)pyridine], in assay [1] (setting [2]), the IC50 was under 1 µM. The “Human PKG (10 μm)” value with human PKG (hPKG) amounted to 14.

Turning to `CN1CCC(c2[nH]c(-c3ccc(F)cc3)c(-c3ccncc3)c2Br)CC1` [Example 15, 4-(4-bromo-2-(4-fluorophenyl)-5-(1-methylpiperidin-4-yl)-1H-pyrrol-3-yl)pyridine], the IC50 in assay [1] (setting [2]) was under 1 µM. Besides, in the assay with human PKG (hPKG), the “Human PKG (10 μm)” value worked out at 52.

With `CCOC(=O)c1c(C2CCN(C)CC2)[nH]c(-c2ccc(F)cc2)c1-c1ccncc1` [Example 16, Ethyl 5-(4-fluorophenyl)-2-(1-methylpiperidin-4-yl)-4-(pyridin-4-yl)-1H-pyrrole-3-carboxylate], the IC50 in assay [1] (setting [2]) was under 1 µM. Moreover, the “Human PKG (10 μm)” value in the assay on human PKG (hPKG) is listed as 18.

Turning to `C=Cc1c(C2CCN(C)CC2)[nH]c(-c2ccc(F)cc2)c1-c1ccncc1` [Example 17, 4-(2-(4-fluorophenyl)-5-(1-methylpiperidin-4-yl)-4-vinyl-1H-pyrrol-3-yl)pyridine], in assay [1] (setting [2]), the IC50 was under 1 µM. Besides, the “Human PKG (10 μm)” value in the assay with human PKG (hPKG) was 34.

On to `CN1CCC(c2[nH]c(-c3ccc(F)cc3)c(-c3ccncc3)c2C#N)CC1` [Example 18, 5-(4-fluorophenyl)-2-(1-methylpiperidin-4-yl)-4-(pyridin-4-yl)-1H-pyrrole-3-carbonitrile], for which the IC50 in assay [1] (setting [2]) is under 1 µM. In addition, the “Human PKG (10 μm)” value in the assay with human PKG (hPKG) was found to be 57.
